Bridge positions count the residues as written; N and C are the ends. Ends that are not written are not given here. I, II: the chains in the order shown.
Columns and labels:
[1] = system: FGFR; cerebellar granule neurons (CGNs); assay: Neurite outgrowth in CGNs transfected with dominant negative FGFR (dnFGFR); type: cell-based, Wistar rat; conditions: 24 h, ARTN 0.21 nM or artefin 1.4 μM
Method: Cerebellar granule neurons (CGNs) were prepared from 7-day-old Wistar rat pups (Charles River Laboratories, Sulzfeld, Germany) as previously described ([Schousboe et al., 1989]). Briefly, pups were decapitated, and the cerebellum was removed and cleared from blood vessels and meninges in ice-cold modified Krebs-Ringer buffer. The cerebellum was dissociated by chopping and trypsinization. Cells were washed in Krebs-Ringer buffer containing DNAse I (Sigma, St. Louis, MO, United States) and soybean trypsin inhibitor (Sigma) to stop trypsinization, and the remaining tissue pieces were pelleted by centrifugation. […]
To estimate neurite outgrowth, neurons were fixated 24 h after stimulation and stained with rabbit anti-growth-associated-protein-43 (GAP-43) antibody (Chemicon International, Inc., Temecula, CA, United States) or anti-GFP antibody (for transfection experiment) overnight at 4°C followed by incubation with secondary Alexa-conjugated goat anti-rabbit antibodies (Invitrogen, Taastrup, Denmark). In case of experiments with plasmid transfection, the transfection efficiency was ca. 20% of total cells and the neurite outgrowth was evaluated only in GFP-positive, i.e., transfected, cells. […]

[2] = system: RET; cerebellar granule neurons (CGNs); assay: Neurite outgrowth in CGNs transfected with dominant negative RET (dnRET); type: cell-based, Wistar rat; conditions: 24 h, P2-d 8 μg/ml, ARTN 0.21 nM, artefin 1.4 μM; for neurite outgrowth in mock-transfected neurons: empty vector, versus control
Method: Cerebellar granule neurons (CGNs) were prepared from 7-day-old Wistar rat pups (Charles River Laboratories, Sulzfeld, Germany) as previously described ([Schousboe et al., 1989]). Briefly, pups were decapitated, and the cerebellum was removed and cleared from blood vessels and meninges in ice-cold modified Krebs-Ringer buffer. The cerebellum was dissociated by chopping and trypsinization. Cells were washed in Krebs-Ringer buffer containing DNAse I (Sigma, St. Louis, MO, United States) and soybean trypsin inhibitor (Sigma) to stop trypsinization, and the remaining tissue pieces were pelleted by centrifugation. Cells were then washed in Krebs-Ringer buffer containing Ca^2+ and Mg^2+ and re-suspended in appropriate Neurobasal^TM medium (Invitrogen, Taastrup, Denmark) with supplements depending on the experiment.
To evaluate the involvement of NCAM and RET in neurite outgrowth induced by either ARTN or artefin, CGNs (3 × 10^6 per transfection) were transfected with 3 μg DNA using a Nucleofector^TM 2b device and a Rat Neuron Nucleofector Kit (Amaxa, Inc., Gaithersburg, MD, United States). A kinase-deleted dominant negative RET insert was obtained by direct PCR using a commercially available clone (IRAKp961P02132Q; RZPD, Berlin, Germany) encoding full-length mouse RET coding sequence 586–3807 nt. as template. The upper primer […] contained a NheI restriction site and Kozak sequence, and the lower primer […] encoded Streptag II and NotI restriction sites. The dominant negative RET insert and the pcDNA5/FRT expression vector containing the Flp-In system were cut with NheI and NotI restriction enzymes, purified, ligated using the Rapid DNA Ligation Kit (Roche, Basel, Switzerland), and transfected into One Shot TOP10 E. coli (Invitrogen, Taastrup, Denmark). E. coli colonies containing the dominant negative RET insert were identified by PCR, and one insert-positive colony was used for plasmid purification. The identity of the purified plasmid was verified by restriction cutting and sequencing of the insert. For NCAM knock down, we used a pENTR vector containing the shRNA expression cassette for NCAM knock down ([Hansen et al., 2007]). An empty vector was used as a control. To identify transfected neurons, all transfections were performed as co-transfections with 0.5 μg pEGFP-N1, an expression vector encoding the enhanced variant of green fluorescent protein (GFP; Clontech, Palo Alto, CA, United States). Transfected CGNs were seeded in Neurobasal^TM-A medium supplemented with 2% (v/v) B27, 5% (v/v) FCS, and 2 mM Glutamax at a density of 1 × 10^5 cells/cm^2.
To estimate neurite outgrowth, neurons were fixated 24 h after stimulation and stained with rabbit anti-growth-associated-protein-43 (GAP-43) antibody (Chemicon International, Inc., Temecula, CA, United States) or anti-GFP antibody (for transfection experiment) overnight at 4°C followed by incubation with secondary Alexa-conjugated goat anti-rabbit antibodies (Invitrogen, Taastrup, Denmark). In case of experiments with plasmid transfection, the transfection efficiency was ca. 20% of total cells and the neurite outgrowth was evaluated only in GFP-positive, i.e., transfected, cells. For representative pictures, cells were additionally co-stained with Hoechst 33258.
Computer-assisted fluorescent microscopy was performed using a Nikon Diaphot 300 inverted microscope (Nikon) equipped with a Nikon Plan 20× objective and coupled to a video camera (Grundig Electronics, Germany). For each condition in each experiment, including the experiment with transfections, images of approximately 200 cells were recorded in systematic series of fields of view, and neurite outgrowth was quantified using a stereological approach as previously described ([Rønn et al., 2000]).
FIGURE 7 Neuritogenic effect of ARTN and artefin in (A) dominant negative RET or (B) knock down NCAM-expressing CGNs. […]

“I: RSPHDLSLASLLGAGKK-NH2 / II: RSPHDLSLASLLGAGK / III: RSPHDLSLASLLGAG / IV: RSPHDLSLASLLGAG (amide I:16-IV:C, I:17-II:C, II:16-III:C; C-terminus assumed) [artefin]” was tested. Which “neurite outgrowth effect in CGNs expressing dnFGFR” value [1] did it give?
Its value is “abolished in CGNs expressing dnFGFR”.

What about the “neurite outgrowth in dnRET-transfected neurons” value [2] of the same molecule?
The value was “abrogated in dnRET-transfected neurons (p < 0.01 versus artefin alone”.

What about the “neurite outgrowth in mock-transfected neurons” value [2] of the same molecule?
Its value is “significantly increased neurite outgrowth in mock-transfected neurons (p < 0.01 versus control)”.

B1: recombinant human Artemin (ARTN) (ligand, UniProt Q5T4W7 108-220, looked up)
chain: AGGPGSRARAAGARGCRLRSQLVPVRALGLGHRSDELVRFRFCSGSCRRARSPHDLSLASLLGAGALRPPPGSRPVSQPCCRPTRYEAVSFMDVNSTWRTVDRLSATACGCLG
notes: Artemin (ARTN), human, UniProt D3DPX9; source: bought: R&D Systems
What does the source list for B1?
neurite outgrowth effect in CGNs expressing dnFGFR [1]: abolished in CGNs expressing dnFGFR; neurite outgrowth in dnRET-transfected neurons [2]: abolished in neurons expressing dnRET (p < 0.05 versus ARTN alone; neurite outgrowth in mock-transfected neurons [2]: significantly increased by ARTN in mock-transfected neurons (p < 0.05 versus control)
